Key:
Format in all cases: cell-based
[1] = biological target: recombinant human IL-2 (rhIL-2) (Homo sapiens, UniProt P60568); assay: IL-2 dependent CTL-Luc cell proliferation
Source text: The murine cytotoxic T lymphocytic line (CTLL) is a subclone of T cells derived from a C57bl/6 mouse. The cells require interleukin-2 (IL-2) for growth and are used to assay for its presence in conditioned media. The cells are responsive to both murine and human IL-2. CTLL cells have been transfected with the firefly luciferase gene contained in the expression vector, pPGK-puromycin-luciferase (Coombe et al, 1998, supra). The positive transfectants are cloned to produce a line with good luciferase expression and these cells are called CTL-Luc. The proliferation assays are carried out in 96-well microplates suitable for such assays (Falcon). […] The cells are counted with a Coulter Z2 Particle Counter and Size Analyzer (Coulter Electronics, England) and routinely 1.6×10^4 cells are added to microplate wells that contain either no recombinant human IL-2 (rhIL-2) (negative control) or various dilutions of rhIL-2. When the effect of PPS, or other sulfated polysaccharides is to be measured, the wells also contain various concentrations of these molecules.
The CTL-Luc cells proliferate for 24 hours at 37° C. in a humidified atmosphere, after which the luciferase activity is measured by the addition of 50 μl of luciferase substrate buffer (50 mM Tris-HCl, pH 7.8, 15 mM MgSO4, 33.3 mM DTT, 0.1 mM EDTA, 0.5 mM Na-luciferin, 0.5 mM ATP, 0.25 mM lithium Co A and 0.5% v/v Triton X-100). […]

[2] = biological target: human GM-CSF (Homo sapiens, UniProt P04141); assay: GM-CSF dependent TF-1.8 cell proliferation; details: 10 μg/ml and 1 μg/ml, GM-CSF 0.025 ng/ml, FIG. 7
Sequence of human GM-CSF (P04141 18-144): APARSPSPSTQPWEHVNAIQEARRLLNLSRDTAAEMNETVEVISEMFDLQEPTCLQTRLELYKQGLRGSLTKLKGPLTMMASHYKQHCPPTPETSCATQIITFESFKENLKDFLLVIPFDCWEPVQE
Protocol: TF-1.8 cells were derived from TF-1 cells that respond to human GM-CSF (granulocyte-macrophage colony stimulating factor). TF-1.8 cells retained their responsiveness to GM-CSF. Routinely 2.5×10^4 cells are added to microplate wells that contain either no GM-CSF (negative control) or various dilutions of GM-CSF. The cells are cultured for 48 hours at 37° C. in a humidified atmosphere, after which the luciferase activity is measured by the addition of 50 μl of luciferase substrate buffer (50 mM Tris-HCl, pH 7.8, 15 mM MgSO4, 33.3 mM DTT, 0.1 mM EDTA, 0.5 mM Na-luciferin, 0.5 mM ATP, 0.25 mM lithium Co A and 0.5% v/v Triton X-100). Immediately after the addition of the luciferase buffer the plate is assayed for luciferase activity. Light emissions are detected on a Victor 1420 Multi-label counter (Wallac, Turku, Finland). A titration of GM-CSF established that these cells are dependent upon this growth factor (FIG. 6). When the effect of PPS, or other sulfated polysaccharides is to be measured, the wells also contain various concentrations of these molecules as well as the GM-CSF.

[3] = biological target: T1, human IL-8 (Homo sapiens, UniProt P10145); assay: IL-8 induced migration of DMSO treated HL-60 cells (chemotaxis); details: 50 μg/ml, IL-8 20 ng/ml
T1 sequence (P10145 21-99): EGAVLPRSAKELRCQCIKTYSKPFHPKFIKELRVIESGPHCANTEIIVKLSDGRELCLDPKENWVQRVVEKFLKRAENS
Protocol: Chemokines known to play an important role in mediating the inflammation associated with COPD include IL-8, MCP-1 and MIP-1α (Barnes 2004, supra). […] These experiments were performed using DMSO treated human promyelocytic HL-60 cells. These cells were derived from a patient with acute promyelocytic leukemia. The cells were treated with DMSO (1.2%) for 4 days before being used in the experiments. The chemotaxis assays were performed in 96-well Costar chemotaxis plates consisting of a bottom chamber to which was added the human IL-8 (+/−inhibitor) and then cells in RPMI and 1% v/v FCS were added to a top chamber and the plate was incubated at 37° C. for 1 hour to allow cells to move from the top chamber into the bottom. The number of cells migrating into the bottom chamber was quantified by labeling with AQUEOUS ONE (20 μl/well) for 1.75 hours before absorbance at 490 nm is read. IL-8 was used at a final concentration of 20 ng/ml and the inhibitors were the sulfated xylan pentasaccharide (10 and 50 μg/ml) and pentosan polysulfate (10 and 50 μg/ml). Cell migration is compared with that seen with no IL-8 or with IL-8 and no inhibitor.

Sequence of recombinant human IL-2 (rhIL-2) (P60568 21-153): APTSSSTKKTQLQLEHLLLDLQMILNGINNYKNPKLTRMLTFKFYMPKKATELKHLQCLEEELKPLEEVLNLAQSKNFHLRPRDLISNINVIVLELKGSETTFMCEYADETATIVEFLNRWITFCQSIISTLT

Substance: Pentosan polysulfate [PPS]
- Effect on proliferation of CTL-Luc cells obtained with rhIL-2 ([1]; 10 μg/ml or 1 μg/ml, rhIL-2 1.25 ng/ml, FIG. 9): no effect
- Toxicity to cytokine dependent lymphocytic cell lines ([1]; IL-2 and GM-CSF responsive cell lines, 10 and 1 μg/ml): not toxic
- Effect on TF-1.8 cell proliferation obtained with GM-CSF [2]: no effect
- Inhibition of cell migration triggered by IL-8 [3]: 74%
